Read-outs that look alike come from different tables or passages of the source.
Assays:
hERG channel = target: T1, hERG channel (Homo sapiens, UniProt Q12809); experiment: hERG inhibition assay (automated patch-clamp, CHO-K1 Tet-On hERG cells); format: cell-based; conditions: for IC50: patch-clamp, ± SD; for hERG inhibition (in words): authors' grading of Table 6
T1 construct: host or cells: CHO-K1 Tet-On hERG cells
Method: For automated patch-clamp NPC-16 Patchliner (Nanion Technologies, München, Germany) recordings, CHO-K1 Tet-On hERG cells (IonGate Biosciences GmbH, Frankfurt, Germany) were plated into 100-mm cell culture dishes. Whole-cell currents were recorded with the intracellular solution containing: 50 mM KCl, 60 mM KF, 10 mM NaCl, 2 mM MgCl2, 20 mM EGTA and 10 mM HEPES (pH 7.2), and with the extracellular solution containing: 140 mM NaCl, 4 mM KCl, 2 mM CaCl2, 1 mM MgCl2, 5 mM Glucose and 10 HEPES (pH 7.4). To assist stable seal formations, the seal enhancer containing: 80 mM NaCl, 3 mM KCl, 35 mM CaCl2, 10 mM MgCl2 and 10 mM HEPES (pH 7.4) was used only at the seal formation step. Prior to the whole-cell recordings, the external seal enhancing solution was exchanged to the extracellular solution described above. hERG channel currents were recorded using the parallel EPC-10 patch-clamp amplifiers (HEKA Elektronik, Lambrecht/Pfalz, Germany), and low-pass filtered (10 kHz) with a 4-pole Bessel filter. Cell suspension and patch solutions were automatically added onto the four recording wells in the microfabricated disposable chip (NPC-16 Chip, Nanion Technologies, München, Germany). To obtain the inhibitory constants, hERG tail currents were evoked by repolarizing steps to −50 mV for 500 ms preceded by a 500-ms depolarisation potential of +20 mV at a holding potential of −80 mV with a 20-s sweep interval. Whole-cell currents were acquired and digitised at 5 kHz using Patchmaster (HEKA Elektronik, Lambrecht/Pfalz, Germany). The extracellular solution was exchanged to the extracellular solution containing each blocker via four pipette tips of NPC-16 Patchliner using a 4-fold volume of solution (40 µL) with a speed of 4 µL/s, and the exchanged blocker solution was applied for 100–200 s to the patch-clamped cells until blocker binding had reached equilibrium by monitoring hERG tail currents. Whole-cell recordings were analysed using the Patchmaster/Fitmaster (HEKA Elektronik, Lambrecht/Pfalz, Germany), IGOR Pro (WaveMetrics Inc., Portland, OR, USA), and the GraphPad Prism 4.0 (GraphPad Software, Inc., La Jolla, CA, USA) software.

[1] = system: acute AD model mice (Aβ1-42 ICV injected ICR mice); experiment: Y-maze spontaneous alternation test in acute AD model mice; format: in vivo, mouse; conditions: 30 mg/kg daily, 6 days; for Recovery of Y-maze spontaneous alternations: i.p.
Method: The acute AD mice model was prepared by administration of Aβ1-42 solution (10% DMSO/90% PBS) to male ICR mice (6 weeks old, 30 − 33 g) via intracerebroventricular (ICV) injection (Aβ1-42 dose: 500 pmol/mouse) as described previously. The wild type mice (B6C3F1) and double APP/PS1 transgenic mice (Tg AD mice model; APPswe/PSEN1dE9) were purchased from Jackson Laboratory (Bar Harbour, ME, USA). The Tg AD model mice were 11 months old at the beginning of the behaviour test, and were housed for 1 month in a room under controlled temperature and fed ad libitum. The behaviour tests were conducted during daytime in air-controlled and soundproof experiment room. The animal experiments were abided by the guidelines of the Institutional Animal Care and Use Committee of Korea Institute of Science and Technology.
To the mice of the acute AD model (n = 7 per group), each test compound (test compound in 20% cyclodextrin, 30 mg/kg) was […] injected daily for 6 days. The Y-maze spontaneous alternation test was performed 1 day after the administration of each test compound. The Y maze was made of three equally spaced black plastic arms (40 L × 10 W × 12 H cm) positioned at an equal angle. Each mouse was placed at the end of one arm and allowed to move freely through the maze for 8 min, and the sequence of arm entries was recorded. The arm entry of the mouse was counted when the all four limbs were within an arm. A set of entries into all three arms is considered as a spontaneous alternation. The spontaneous alternation (%) was calculated by the following equation: Spontaneous alternation (%)=100x[number of alternations/(total number of arm entries – 2)]
We evaluated in vivo activity of 7 and 14 in an acute AD mouse model. The acute AD model mice were generated by the administration of Aβ1-42 peptide (500 pmol) according to the previously reported method, and each compound (30 mg/kg daily) was administered intraperitoneally for 6 days. Piracetam (30 mg/kg daily) was also administered in parallel for comparison. The Y-maze spontaneous alternation tests were performed to measure the recovery of learning and memory deficit in acute AD model mice[38]^,[39]. […] We believe that the treatment of 7 was beneficial for ameliorating Aβ-induced cognitive impairments.

[2] = Pharmacokinetic study in SD male rats; format: in vivo, rat; conditions: 10 mg/kg; for AUC(0-inf) / AUC(0-t) / clearance / Vd / bioavailability / Tmax / half-life / Cmax: Sprague-Dawley, rat, plasma; for bioavailability: oral vs intravenous; for half-life: male
Method: Each test compound at a dose of 10 mg/kg was administered intravenously or orally to male Sprague-Dawley (SD) rats. Blood samples collected via carotid artery at several time points after administration of each compound were stored at −70 °C until LC-MS/MS analysis. To determine the plasma concentration of each compound, a 0.1 µg/mL of internal standard in 100 µL of MeCN was added to 50 µL of plasma samples. After vortex-shaking and centrifugation at 10,000 rpm for 10 min, 5 µL of the supernatant was analysed by LC-MS/MS [HP1100® HPLC system (Agilent, Santa Clara, CA) combined with API3200® triple-quadrupole mass spectrometer (Applied Biosystems-SCIEX, Concord, Canada)]. The HPLC chromatographic separation was performed on a reversed-phase Xterra® C18 column (Waters Corporation, Milford, MA) using gradient elution consisted of 0.1% formic acid and 0.1% formic acid in 90% MeCN at a flow rate of 0.3 ml/min.

[3] = intravenous, n = 3, read-out: Vss
[4] = n = 3, read-out: F (bioavailability)
[5] = iv, intravenous, n = 3, read-out: Terminal half-life
[6] = po, oral, n = 3, read-out: Terminal half-life

T1 sequence (Q12809 whole entry): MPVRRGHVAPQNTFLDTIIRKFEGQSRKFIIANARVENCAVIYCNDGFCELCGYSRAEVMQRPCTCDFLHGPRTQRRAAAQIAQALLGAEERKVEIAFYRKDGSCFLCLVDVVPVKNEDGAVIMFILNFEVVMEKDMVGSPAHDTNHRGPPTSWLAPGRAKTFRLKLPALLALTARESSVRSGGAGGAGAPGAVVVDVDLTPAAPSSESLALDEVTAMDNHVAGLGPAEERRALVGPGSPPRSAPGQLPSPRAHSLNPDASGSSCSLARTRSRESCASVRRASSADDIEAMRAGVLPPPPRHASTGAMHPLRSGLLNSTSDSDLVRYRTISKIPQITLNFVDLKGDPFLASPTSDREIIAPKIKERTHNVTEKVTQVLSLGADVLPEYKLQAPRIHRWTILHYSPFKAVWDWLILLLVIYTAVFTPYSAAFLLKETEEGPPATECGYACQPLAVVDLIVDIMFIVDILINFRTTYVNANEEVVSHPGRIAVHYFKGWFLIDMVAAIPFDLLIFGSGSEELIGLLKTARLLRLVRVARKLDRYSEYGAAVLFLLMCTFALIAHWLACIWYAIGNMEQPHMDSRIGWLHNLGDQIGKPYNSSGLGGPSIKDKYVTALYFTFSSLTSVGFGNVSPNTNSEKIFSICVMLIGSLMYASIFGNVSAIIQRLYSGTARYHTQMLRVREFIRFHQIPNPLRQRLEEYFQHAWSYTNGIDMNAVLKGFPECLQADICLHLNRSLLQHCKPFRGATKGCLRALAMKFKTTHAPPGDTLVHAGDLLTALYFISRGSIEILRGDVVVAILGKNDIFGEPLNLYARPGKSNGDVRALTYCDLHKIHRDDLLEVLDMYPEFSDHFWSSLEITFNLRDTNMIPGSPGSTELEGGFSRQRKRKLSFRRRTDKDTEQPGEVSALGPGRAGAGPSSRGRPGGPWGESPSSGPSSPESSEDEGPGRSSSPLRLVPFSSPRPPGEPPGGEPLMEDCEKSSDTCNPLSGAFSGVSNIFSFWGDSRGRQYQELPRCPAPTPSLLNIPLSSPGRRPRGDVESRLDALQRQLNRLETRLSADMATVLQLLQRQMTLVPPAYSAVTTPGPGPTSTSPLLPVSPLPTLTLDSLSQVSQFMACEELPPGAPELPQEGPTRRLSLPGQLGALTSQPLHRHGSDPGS

Row | AUC(0-t) ([2]; intravenous, n = 3) [ng·h/mL] | clearance ([2]; intravenous, n = 3) [mL/min/kg] | AUC(0-inf) ([2]; intravenous, n = 3, mean ± SD) [ng·h/mL] | Vd [2, 3] [L/kg] | bioavailability [2, 4] [%] | AUC(0-t) ([2]; oral, n = 3) [ng·h/mL] | Cmax ([2]; oral, n = 3) [ng/mL] | AUC(0-inf) ([2]; oral, n = 3, mean ± SD) [ng·h/mL] | Tmax ([2]; oral, n = 3, range in brackets) [h] | half-life [2, 5] [h] | half-life [2, 6] [h] | SMILES | IC50 (hERG channel) [µM] | Recovery of Y-maze spontaneous alternations [1] [%] | hERG inhibition (in words) (hERG channel) | Y-maze activity in acute AD model (in words) [1] | further results
1 | 4560 | 32.5 ± 10.1 | 5510 | 7.74 ± 1.11 | 8 | 194 | 40 ± 20 | 443 | 0.8 | 2.9 ± 0.54 | 7.47 ± 0.46 | CCOc1ccc(-n2c(SCC(=O)NCc3ccccc3)nc3sc4c(c3c2=O)CCN(C(C)=O)C4)cc1 [Compound 31] | 8.8 ± 2.36 | 107 | low hERG inhibition | – | –
2 | 17600 | 9.43 ± 1.05 | 17800 | 0.785 ± 0.0396 | 78.4 | 8120 | 2110 ± 910 | 10200 | 1.2 | 1.33 | 3.32 ± 2.24 | CCOc1ccc(-n2c(SCC(=O)N3CCN(c4ccccc4)CC3)nc3sc4c(c3c2=O)CCN(C(C)=O)C4)cc1 [Compound 44] | 8.9 ± 0.22 | 98 | low hERG inhibition | – | Terminal half-life ([2]; intravenous, n = 3): 1.336 ± 0.156 h

Second part, the compound before the results:

Row | SMILES | AUC(0-t) ([2]; intravenous, n = 3) [ng·h/mL] | clearance ([2]; intravenous, n = 3) [mL/min/kg] | AUC(0-inf) ([2]; intravenous, n = 3, mean ± SD) [ng·h/mL] | Vd [2, 3] [L/kg] | bioavailability [2, 4] [%] | AUC(0-t) ([2]; oral, n = 3) [ng·h/mL] | Cmax ([2]; oral, n = 3) [ng/mL] | AUC(0-inf) ([2]; oral, n = 3, mean ± SD) [ng·h/mL] | Tmax ([2]; oral, n = 3, range in brackets) [h] | half-life [2, 5] [h] | half-life [2, 6] [h] | IC50 (hERG channel) [µM] | Recovery of Y-maze spontaneous alternations [1] [%] | hERG inhibition (in words) (hERG channel) | Y-maze activity in acute AD model (in words) [1] | further results
3 | CCOc1ccc(-n2c(SCC(=O)Nc3ccc(OC)c(OC)c3)nc3sc4c(c3c2=O)CCN(C(C)=O)C4)cc1 [Compound 7] | – | – | – | – | – | – | – | – | – | – | – | 19.5 ± 4.43 | 76 | – | – | AUC(0-inf) ([2]; intravenous, n = 5, Table S3): 6030 ng·h/mL; AUC(0-t) ([2]; intravenous, n = 5, Table S3): 6000 ng·h/mL; clearance ([2]; intravenous, n = 5, Table S3): 28.9 ± 7.09 mL/min/kg; Vd ([2]; intravenous, n = 5, Table S3, read-out: Vss): 1.74 L/kg; bioavailability ([2]; n = 5, Table S3, read-out: F (bioavailability)): 37.3%; AUC(0-inf) ([2]; oral, n = 5, Table S3): 2250 ng·h/mL; AUC(0-t) ([2]; oral, n = 5, Table S3): 1930 ng·h/mL; Tmax ([2]; oral, n = 5, Table S3): 2.2 h; half-life ([2]; iv, intravenous, n = 5, Table S3, read-out: Terminal half-life): 1.04 ± 0.0785 h; half-life ([2]; po, oral, n = 5, Table S3, read-out: Terminal half-life): 2.35 ± 1.04 h
4 | CCOc1ccc(-n2c(SCC(=O)NC3CCN(C)CC3)nc3sc4c(c3c2=O)CCN(C(C)=O)C4)cc1 [Compound 30] | – | – | – | – | – | – | – | – | – | – | – | 12.3 ± 1.25 | – | low hERG inhibition | did not show significant activity | –
5 | CCOc1ccc(-n2c(SCC(=O)NCc3ccccc3)nc3sc4c(c3c2=O)CCN(C)C4)cc1 [Compound 49] | – | – | – | – | – | – | – | – | – | – | – | 15 ± 4.24 | – | low hERG inhibition | did not show significant activity | –
6 | CCOc1ccc(-n2c(SCC(=O)N(C)Cc3ccccc3)nc3sc4c(c3c2=O)CCN(C)C4)cc1 [Compound 50] | – | – | – | – | – | – | – | – | – | – | – | 10.6 ± 0.97 | – | low hERG inhibition | did not show significant activity | –
